According to ChEMBL document CHEMBL1159274, “Spiganthine, the cardioactive principle of Spigelia anthelmia” (J Nat Prod, 1995):

Tests used:
[1] = (§1) Induction of delay in contraction development in electrically-stimulated guinea pig heart ventricular papillary muscle at contraction frequency of 1 Hz; assay type: functional, tissue-based; details: Cavia porcellus, Muscle tissue
[2] = species: Cavia porcellus; assay: as §1; assay type: functional, tissue-based; details: Muscle tissue

| EC50 [1] | SMILES | minimal effective concentration ([1]; read-out: MEC) | Activity [2] |
| --- | --- | --- | --- |
|  | CC(C)[C@@]1(O)[C@@H](OC(=O)c2cc[nH]c2)[C@@]2(O)[C@]3(C)C[C@@]4(O)O[C@@]5([C@H](O)[C@@H](C)CC[C@]35O)[C@@]2(O)[C@@]41C [RYANODINE] | 0.0165 µM |  |
| 60 nM | CC(C)[C@@]1(O)[C@@H](OC(=O)c2cc[nH]c2)[C@@]2(O)[C@@]3(CO)C[C@]4(O)O[C@@]5([C@H](O)[C@@H](C)CC[C@]35O)[C@@]2(O)[C@]14C [SPIGANTHINE] |  | Dose-dependent effect |
